Results from ChEMBL document CHEMBL4739717, “Methods of treating cartilage disorders through inhibition of clk and dyrk” (2020).

Columns and labels:
[1] = Inhibition of IL1-beta induced MMP3 expression levels in human chondrocytes assessed as MMP3 levels incubated for 2hrs followed by IL1-beta stimulation and measured after overnight incubation by LANCE assay; assay type: functional, cell-based; details: Chondrocyte
[2] = Effect on Wnt signaling pathway in human SW480 cells harbouring TCF/LEF luciferase reporter gene and SP5-Luc reporter gene incubated for 36 to 48 hrs by luminescence assay; assay type: cell-based
[3] = molecular target: Dual specificity tyrosine-phosphorylation-regulated kinase 1A (Homo sapiens, UniProt Q13627); experiment: Inhibition of recombinant DYRK1A (unknown origin) using Ser/Thr 18 peptide as substrate incubated for 1 hr in presence of ATP by FRET assay
[4] = Induction of chondrogenesis in human MSC assessed as incubated for 6 days by rhodamine B and Nile red staining based imaging analysis; assay type: functional; details: bmmsc

SMILES	EC50 [1]	EC50 [2]	EC50 [3]	EC50 [4]
CN1Cc2ccc(C(=O)Nc3cc4cc(-c5cncn5C)ccc4cn3)cc2C1	3000 nM	–	–	–
CN1CCN(c2ccc(C(=O)Nc3cc4cc(-c5cnn6c5CN(CCF)CC6)ccc4cn3)cn2)CC1	3000 nM	–	–	–
O=C(NCc1cc(F)cc(F)c1)c1n[nH]c2ccc(-c3cncc(CN4CCCCC4)c3)cc12	3000 nM	1820 nM	–	–
O=C(Nc1cnccn1)c1n[nH]c2ccc(-c3cncc(CN4CCCCC4)c3)cc12	–	289 nM	1 nM	–
CN1CCCN(c2cc(C(=O)Nc3cc4cc(-c5cnn(C)c5)ccc4cn3)ccn2)CC1	3000 nM	–	–	–
CN1CCN(c2cc(C(=O)Nc3cc4cc(-c5cnc(N)s5)ccc4cn3)ccn2)CC1	0.4 nM	–	–	–
CN1CCc2cc(C(=O)Nc3cc4cc(-c5cn(C)nn5)ccc4cn3)ccc2C1	3000 nM	–	–	–
NC(=O)c1n[nH]c2ccc(-c3cncc(CN4CCCCC4)c3)cc12	2.3 nM	1960 nM	–	–
CN(C)Cc1cncc(NC(=O)c2n[nH]c3ccc(-c4cncc(CN5CCCC5)c4)cc23)c1	–	330 nM	2 nM	–
CC(C)CC(=O)Nc1cncc(-c2cc3c(-c4cc5c(-c6cc(F)cc(CNS(C)(=O)=O)c6)cncc5[nH]4)n[nH]c3cn2)c1	–	> 10000 nM	99 nM	–
O=C(Nc1cc2cc(-c3cncs3)ccc2cn1)c1ccc2c(c1)CNCC2	3000 nM	–	–	–
CN1CCC2(CC1)CN(c1cc(C(=O)Nc3cc4cc(-c5cnn(C)c5)ccc4cn3)ccn1)C2	3000 nM	–	–	–
O=C(Nc1ccc2c(c1)OCCO2)c1n[nH]c2ccc(-c3cncc(CN4CCCCC4)c3)cc12	–	125 nM	3 nM	–
CN1CC=C(c2cc(C(=O)Nc3cc4cc(-c5cncc(NC(C)(C)C)n5)cnc4cn3)ccn2)CC1	3000 nM	357 nM	–	–
CN1CCN(c2cc(C(=O)Nc3cc4cc(-c5cnn(C)c5)c(F)cc4cn3)ccn2)CC1	0.4 nM	–	–	–
CC(C)Nc1cncc(-c2ccc3cnc(NC(=O)c4cccc(C5CCN(C)CC5)c4)cc3c2)n1	3000 nM	132 nM	–	–
CN1CCN(c2ccc(C(=O)Nc3cc4cc(-c5cnn(C)c5)ccc4cn3)cn2)CC1	9.5 nM	–	–	–
CNc1nc(NCc2ncccn2)c2c(-c3ccc4ncccc4c3)c[nH]c2n1	–	73.3 nM	7 nM	–
O=C(Nc1ccc(CN2CCCC2)cc1)c1n[nH]c2ccc(-c3cncnc3)cc12	307 nM	1310 nM	–	–
O=C(Nc1cnccc1NC(=O)C1CC1)c1n[nH]c2ccc(-c3cccnc3)cc12	–	68 nM	6 nM	–
CN1CCN(Cc2ccc(NC(=O)c3n[nH]c4ccc(-c5cccnc5)cc34)cn2)CC1	–	37 nM	1 nM	–
O=C(Nc1cc2cc(-c3cncc(NC4CCNCC4)n3)ccc2cn1)C1CCCCC1	3000 nM	319 nM	–	–
Cn1cc(-c2ccc3cnc(NC(=O)c4ccc5c(c4)CNCC5)cc3c2)cn1	1630 nM	–	–	–
CN1CCN(c2cc(C(=O)Nc3ncc4ccc(-c5cnn(C)c5)cc4n3)ccn2)CC1	417 nM	468 nM	–	–
CN1CCN(c2cc(C(=O)Nc3cc4c(Cl)c(-c5cnn(C)c5)ccc4cn3)ccn2)CC1	898 nM	–	–	–
CC(C)CC(=O)Nc1cncc(-c2ccc3[nH]nc(-c4nc5c(N6CCN(C)CC6)cccc5[nH]4)c3c2)c1	–	268 nM	5 nM	–

SMILES	EC50 [1]	EC50 [2]	EC50 [3]	EC50 [4]
Cc1nnc(C(=O)Nc2cc3cc(-c4cncn4C)ccc3cn2)s1	71.5 nM	1890 nM	–	–
CN(C)C(=O)Nc1cncc(-c2ccc3[nH]nc(C(=O)Nc4cccnc4)c3c2)c1	–	176 nM	1 nM	–
COc1cncc(-c2cc3c(-c4nc5c(-c6cccc(F)c6)cncc5[nH]4)n[nH]c3cn2)c1	–	31.3 nM	26 nM	300 nM
CCNCc1cncc(-c2ccc3[nH]nc(-c4cc5cnccc5[nH]4)c3c2)c1	–	1040 nM	3 nM	10 nM
CN1CCC(n2cc(C(=O)Nc3cc4cc(-c5cnn(C)c5)ccc4cn3)cn2)CC1	–	14 nM	–	–
CN1CCC(n2cc(C(=O)Nc3ncc4ccc(-c5cncc6[nH]ccc56)cc4n3)cn2)CC1	3000 nM	1400 nM	–	–
O=C(Nc1cc2cc(-c3cncc(NC4CCNCC4)n3)ncc2cn1)C1CCOCC1	46.6 nM	3640 nM	–	–
CC(C)OC(=O)N1CCC(n2cc(C(=O)Nc3cc4cc(-c5cnn(C)c5)ccc4cn3)cn2)CC1	88.1 nM	54.5 nM	–	–
O=C(Nc1cc2cc(-c3cncc(NCC4(F)CNC4)n3)ccc2cn1)C1CC1	897 nM	119 nM	–	–
CCCC(=O)Nc1cncc(-c2cc3c(-c4nc5c(-c6cccc(F)c6)nccc5[nH]4)n[nH]c3cn2)c1	–	18.8 nM	53 nM	10 nM
CC(C)n1cc(C(=O)Nc2cc3cc(-c4cncn4C(C)C)ccc3cn2)cn1	4.6 nM	115 nM	–	–
CN1CCN(c2ccc(NC(=O)c3n[nH]c4ccc(-c5cncc(NC(=O)C6CC6)c5)cc34)cn2)CC1	–	80 nM	1 nM	–
Cc1n[nH]c2ccc(-c3cncc(OCCN)c3)cc12	3000 nM	1640 nM	–	–
CN1CCC(n2cc(C(=O)Nc3cc4cc(-c5cnc6cc[nH]c6c5)ccc4cn3)cn2)CC1	3000 nM	26.8 nM	–	–
Cc1ncc(C(=O)Nc2cc3nc(-c4cnc(C)n4C)ccc3cn2)s1	8.7 nM	107 nM	–	–
NC1CN(c2cc(C(=O)Nc3cc4cc(-c5cnco5)ccc4cn3)ccn2)C1	3000 nM	–	–	–
CC(C)CC(=O)Nc1cncc(-c2cnc3[nH]nc(-c4cc5c(-c6cc(F)cc(CNS(C)(=O)=O)c6)cncc5[nH]4)c3c2)c1	–	2510 nM	16 nM	–
CN(C)Cc1cncc(-c2cnc3[nH]nc(-c4nc5c(-c6ccsc6)cccc5[nH]4)c3c2)c1	–	32 nM	83 nM	300 nM
Cc1ncc(NC(=O)c2n[nH]c3ccc(-c4cnc(C)n4C)cc23)s1	–	335 nM	4 nM	–
CN(C)CCN(C)c1ccc(NC(=O)c2n[nH]c3ccc(-c4cncc(CN5CCCCC5)c4)cc23)cn1	–	65 nM	1 nM	–
CN1CCC2(CC1)CN(c1cc(C(=O)Nc3cc4cc(-c5cnn(C)c5CO)ccc4cn3)ccn1)C2	3000 nM	–	–	–
CS(=O)(=O)NCc1cc(F)cc(-c2nccc3[nH]c(-c4n[nH]c5ncc(-c6cncc(NC(=O)C7CCC7)c6)cc45)cc23)c1	–	3640 nM	16 nM	300 nM
CN1CCN(c2cc(C(=O)Nc3cc4cc(-c5cnn(C6CC6)c5)ccc4cn3)ccn2)CC1	12.2 nM	–	–	–
Cn1ncc(-c2ccc3cnc(NC(=O)c4ccc(OC(F)F)cc4)cc3c2)c1CO	1370 nM	–	–	–
O=C(Nc1cccnc1)c1n[nH]c2ccc(-c3cncc(NC(=O)N4CCOCC4)c3)cc12	–	1250 nM	2 nM	–
O=C(Nc1cc2cc(-c3cncc(NC4CCNCC4)n3)ccc2cn1)C1CC(F)(F)C1	–	381 nM	–	–

SMILES	EC50 [1]	EC50 [2]	EC50 [3]	EC50 [4]
O=C(Nc1ccnnc1)c1n[nH]c2ccc(-c3cncc(CN4CCCCC4)c3)cc12	–	40 nM	1 nM	–
CS(=O)(=O)NCc1cc(F)cc(-c2nccc3[nH]c(-c4n[nH]c5ncc(-c6cncc(OCc7ccccc7)c6)cc45)cc23)c1	–	3990 nM	97 nM	–
Cn1cc(-c2ccc3cnc(NC(=O)c4ccc5cnccc5c4)cc3c2)cn1	3000 nM	–	–	–
CN1CCN(c2cc(C(=O)Nc3cc4cc(-c5cnn(C)c5N)ccc4cn3)ccn2)CC1	11.5 nM	–	–	–
CC(C)CC(=O)Nc1cncc(-c2cnc3[nH]nc(-c4cc5c(-c6cc(F)cc(CNS(C)(=O)=O)c6)nccc5[nH]4)c3c2)c1	–	1510 nM	19 nM	300 nM
Cc1cc2[nH]nc(C(=O)Nc3ccc(CN4CCCC4)cc3)c2cc1-c1cccnc1	–	1090 nM	–	–
Cn1cncc1-c1ccc2cnc(NC(=O)c3ccnc(N4CCN(C5CC5)CC4)c3)cc2c1	3000 nM	–	–	–
Cc1n[nH]c2ccc(-c3cncc(N[C@H]4CC[C@H](O)CC4)n3)cc12	–	95 nM	1 nM	–
Fc1cccc(-c2cncc3[nH]c(-c4n[nH]cc4C#Cc4cncc(OC5CCNCC5)c4)nc23)c1	–	4640 nM	56 nM	–
CCNCc1cncc(-c2cnc3[nH]nc(-c4cc5c(-c6cc(F)cc(CNS(C)(=O)=O)c6)nccc5[nH]4)c3c2)c1	–	> 10000 nM	30 nM	300 nM
Cc1cc(C(=O)Nc2cc3cc(-c4cnn(C)c4)ccc3cn2)cc(N2CCN(C)CC2)n1	3000 nM	–	–	–
O=C(Nc1cc2cc(-c3cncc(NCC4(F)CNC4)n3)ncc2cn1)C1CC1	–	383 nM	–	–
CN(C)CCOc1cncc(-c2cnc3[nH]nc(-c4nc5c(-c6cccc(F)c6)nccc5[nH]4)c3c2)c1	–	253 nM	5 nM	–
O=C(Nc1ccnnc1)c1n[nH]c2ccc(-c3cccnc3)cc12	–	106 nM	1 nM	–
Nc1cncc(-c2cnc3[nH]nc(-c4cc5c(-c6ccncc6)cncc5[nH]4)c3c2)c1	–	> 10000 nM	3 nM	–
CN(C)Cc1ccc(C(=O)Nc2cc3cc(-c4cnn(C)c4)ccc3cn2)cc1	47.4 nM	–	–	–
CC(C)(C)C(=O)Nc1cncc(-c2ccc3[nH]nc(-c4nc5c(-c6ccc(F)cc6)cncc5[nH]4)c3c2)c1	–	4 nM	55 nM	100 nM
CN(C)CCNc1cc(C(=O)Nc2cc3cc(-c4cnn(C)c4)ccc3cn2)ccn1	306 nM	–	–	–
CN(C)C1CCN(c2cc(C(=O)Nc3cc4cc(-c5cnn(C)c5)ccc4cn3)ccn2)CC1	697 nM	–	–	–
O=C(Nc1ccc(-c2ccccc2)nc1)c1n[nH]c2ccc(-c3cncc(CN4CCCCC4)c3)cc12	–	101 nM	7 nM	–
CC(C)Nc1cncc(-c2ccc3cnc(NC(=O)C4CCN(CCF)CC4)cc3c2)n1	–	178 nM	–	–
Cc1ncc(-c2ccc3cnc(NC(=O)c4ccc(OC(C)C)cc4)cc3c2)n1C	10.5 nM	–	–	–
O=C(Nc1cncc(-c2ccc3[nH]nc(-c4cc5c(-c6cccnc6)nccc5[nH]4)c3c2)c1)c1ccccc1	–	421 nM	19 nM	–
O=C(Nc1ccc(N2CCC(O)CC2)nc1)c1n[nH]c2ccc(-c3cncc(CN4CCCCC4)c3)cc12	–	49 nM	1 nM	–
